Five compounds from US20090143318A1, “DEGRANULATION INHIBITOR” (Tropical Technology Center Ltd., priority 2006, published 2009) can be followed below.

This assay has as its system rat basophilic leukemia cells (RBL-2H3). In words: Degranulation inhibitory activity: hexosaminidase release-inhibitory activity test. Type of assay: cell-based. The settings on record: for IC50 value (inhibition of release of hexosaminidase) / IC50: IgE-sensitized RBL-2H3 cells, DNP-BSA antigen-induced degranulation; for Activity compared with the positive control ketotifen fumarate: statement in words, hexosaminidase release, RBL-2H3. The method, then: With regard to the measurement of degranulation inhibitory activity, a test for hexosaminidase release-inhibitory activity was carried out by referring to Non-Patent Document 1 and Non-Patent Document 2 (Kataoka M., Takagaki Y., Shoyakugaku Zasshi, 46(1), 25-29, 1992). Firstly, rat basophilic leukemia cells (RBL-2H3) were made into 5×10^5 cells/mL and seeded on a 96-well plate and anti-DNP-BSA mouse IgE antibody was added thereto so as to make its final concentration 0.29 μg/mL and incubated with 5% CO2 at 37° C. overnight in an incubator to sensitize the cells. Then the cells were washed with a phosphate-buffered physiological saline solution twice and 130 μL of a releasing mixture (comprising 116.9 mM of NaCl, 5.4 mM of KCl, 0.8 mM of MgSO4, 2.0 mM of CaCl2, 5.6 mM of glucose, 0.1% of bovine serum albumin and 25 mM of HEPES) was added thereto.
Then, Compounds (A) and (C) obtained in the invention were first dissolved in 25% ethanol, and then Compound (A) was diluted with 1% ethanol to achieve the final concentration in 7 serial dilutions in steps of from 1 μg/mL to 5 ng/mL; and Compound (C) was diluted with 1% ethanol to achieve the final concentration by 7 serial dilutions in steps of from 10 μg/mL to 50 ng/mL. Compound (B) was first dissolved in water, and then diluted with 1% ethanol to achieve the final concentration by 7 serial dilutions in steps of from 50 μg/mL to 50 ng/mL. Compound (D) was diluted with 4% ethanol-20 mM phosphate buffer to achieve the final concentration by 4 serial dilutions in steps of 2.6 μg/mL to 165 ng/mL. 10 μL portion samples of all concentrations of Compounds (A), (B), (C) and (D) were added to the cells, respectively, and allowed to stand at 37° C. under 5% CO2 in an incubator for 10 minutes. Then 10 μL of an antigen DNP-BSA (2 μg/mL) was added, the mixture was allowed to stand in an incubator for 1 hour to induce degranulation, and centrifuged to collect the supernatant. 15 μL of a 5 mM hexosaminidase substrate solution (p-nitrophenyl-β-D-glucosaminide) was added to 45 μL of the supernatant liquid, the mixture was made to react at 37° C. for 3 hours and 180 μL of a solution for stopping the reaction (0.1M NaHCO3/Na2CO3; pH 10.0) was added thereto. After completion of the reaction, absorbance at 415 nm was measured and the hexosaminidase release-inhibitory activity was calculated by the following formula. Meanwhile, a positive control (200 μM of ketotifen fumarate) and a negative control corresponding to the final solvent concentration for the test substance were prepared.
Hexosaminidase release-inhibitory Activity(%)=[1−(S−B/C−b)]×100
S: absorbance of the test substance upon addition of cells
B: absorbance upon addition of the test substance in the absence of the cells
C: absorbance of the negative control
b: absorbance in the absence of cells

[1] abbreviates: molar concentration, read-out: IC50 value (inhibition of release of hexosaminidase), molar value in brackets.
[2] abbreviates: Rattus norvegicus, mass concentration, read-out: IC50 value (inhibition of release of hexosaminidase).
Setting [3] is: Rattus norvegicus, molar concentration, read-out: IC50 value (inhibition of release of hexosaminidase), molar value in brackets.

Where a name gives a salt, the structure may show the parent alone. Read-outs that look alike come from different tables or passages of the source.

Regarding `O=c1oc2c3c(cc4c(=O)oc5c(O)c(OC6O[C@H](CO)[C@@H](O)[C@H](O)[C@H]6O)cc1c5c24)OCO3` (stereo partly shown) [Compound (A), 3,4-dioxoloellagic acid 4′-glucoside], the “IC50 value (inhibition of release of hexosaminidase)” value (mass concentration) was 0.00663 µg/mL. Moreover, the IC50 (in general, the concentration at which inhibition is half-maximal) under setting [1] was 0.014 µM.

`COc1c(O)cc2c(=O)oc3c(O)c(OC4O[C@H](CO)[C@@H](O)[C@H](O)[C@H]4O)cc4c(=O)oc1c2c34` (stereo partly shown) [Compound (B), 3-O-methylellagic acid 4′-glucoside]: the “Activity compared with the positive control ketotifen fumarate” value is recorded as “higher activity”. The “IC50 value (inhibition of release of hexosaminidase)” value (mass concentration) is 14.83 µg/mL. Also, under setting [1], the IC50 is 31 µM.

On to `COc1cc2c(=O)oc3c(OC)c(O)cc4c(=O)oc(c1OC)c2c34` [Compound (C), 3,3′,4-tri-O-methylellagic acid], for which the “Activity compared with the positive control ketotifen fumarate” value is “higher activity”. In addition, under setting [2], the IC50 stood at 4.47 µg/mL. The IC50 under setting [3] came to 13 µM.

As for `O=c1oc2c3c(cc4c(=O)oc5c(O)c(O)cc1c5c24)OCO3` [Compound (D), 3,4-dioxoloellagic acid], the “Activity compared with the positive control ketotifen fumarate” value is recorded as “higher activity”. Besides, the half-maximal inhibitory concentration (IC50) under setting [2] worked out at 1.07 µg/mL. The half-maximal inhibitory concentration (IC50) under setting [3] stood at 3 µM.

Take `CN1CCC(=C2c3ccccc3CC(=O)c3sccc32)CC1` [Ketotifen fumarate, ketotifen fumarate, reference compound]: the half-inhibitory concentration (IC50) came to 71.8 µg/mL under setting [2] and 169 µM under setting [3].
